For two compounds, solubility, serum potassium and serum sodium results are on record in patent US10759788B2, “Pharmaceutical uses of pyridine carboxamide derivatives” (Jiangsu Hengrui Medicine Co., Ltd., priority 2014, dated 2020).

Entries after “also recorded” stand apart in the source; their conditions may differ.

Data set [1] is described as follows: Solubility observed when preparing the drugs for the diuresis experiment. Format: physicochemical. Conditions: preparation of the dosing liquid, observation in words. The source says: In this experiment, the solubility of the test compound I was very good. There was no delamination phenomenon. […] After fully grinding, the solubility improved. […] Moreover, the effect was dose-dependent for each dose of the test compound I and the positive control drug.

For data set [2], the system named is SD rats. Put plainly: Diuretic efficacy of ROMK inhibitors in SD rats. Conditions: 0.03 and 0.1 mg/kg i.g. once, after urine collection. Format: in vivo. How it is done: The diuretic efficacy of compound 1 and positive control drug of ROMK inhibitor on SD rats was evaluated.
Male SD rats were purchased from SINO-BRITSH SIPPR/BK LAB. ANIMAL LTD., CO (Shanghai, China, Certificate No. 2008001647752, License SCXK (Shanghai) 2013-0016). The rats were 120-130 g, and fed at 5/cage, in a 12/12 hours light/dark cycle regulation, at a constant temperature of 23±1° C., humidity of 50-60%, and free access to water and food. The male SD rats were acclimated to this condition for 7 days before their use in the diuresis experiment.
The experiment was carried out according to the method disclosed in PCT Patent Application Publication WO2010129379A1. After adaptive feeding, the rats were placed in metabolism cages and fasted overnight. The rats were weighed and randomly divided into the following groups: blank control group, compound 1 tested drug 0.03 mg/kg group and 0.1 mg/kg group, and the positive control group 0.03 mg/kg and group 0.1 mg/kg, with 10 rats for each group. Each rat was intragastrically administered each compound (ig, 1 ml/kg). The rats in the blank control group were fed with the corresponding solvent. After intragastric administration, the rats were placed in the normal cage. After 30 min, 25 ml/kg normal saline was given. Rats were put into the metabolic cages, and fasting for food and water began inmediately. The total urine volume in 4 h was collected and measured. The urinary sodium and urinary potassium excretion in 4 h were also measured. The orbital serum was collected after the collection of urine to test the serum sodium and serum potassium concentrations.
The experimental data were expressed as mean±standard deviation (S.D.). The data was statistically compared using the t test of excel.

Turning to `Cc1cc(C(=O)NC2CCN(C[C@H](O)c3ccc4c(c3C)COC4=O)CC2)ncc1C#N` [positive control drug], the solubility entry in data set [1] is on record as “poor solubility”. For the same compound, in data set [2], the serum potassium result is on record as “changed a little; also recorded: no effect” and the serum sodium result is “changed a little”.

In the case of `COc1cc(C(=O)NC2CCN(C[C@H](O)c3ccc4c(c3C)COC4=O)CC2)ncc1C#N` [Example 1, (R)-5-cyano-N-(1-(2-hydroxy-2-(4-methyl-1-oxo-1,3-dihydroisobenzofuran-5-yl)ethyl)piperidin-4-yl)-4-methoxypicolinamide], in data set [1], the solubility result was “very good”. In addition, in data set [2], the serum potassium entry is “changed a little” and the serum sodium result is given as “changed a little”. The serum potassium entry in data set [2] (listed as Compound I) is given as “no effect”.
